In publication PMC2795317 (Journal of medicinal chemistry, 2009):

Test system: MDA-MB-231 breast cancer cells
Experiment: Western blot analysis of caspase-8/-3 processing and PARP cleavage
Type: cell-based
Details: 24 hours; for Concentration inducing processing of caspase-3 and -8 and cleavage of PARP: concentrations as low as

| Structure (SMILES) | Processing of caspase-8 and -3 and cleavage of PARP | Concentration inducing processing of caspase-3 and -8 and cleavage of PARP |
| --- | --- | --- |
| CN[C@@H](C)C(=O)N[C@H]1CCCC[C@H]2[C@@H](Cc3ccccc3)C[C@@H](C(=O)N[C@@H]3CCCc4ccccc43)N2C1=O [Compound 10] | effectively induce processing of caspase-8 and -3 and cleavage of PARP in a dose-dependent manner | ≤ 10 nM |
| CN[C@@H](C)C(=O)N[C@H]1CCCC[C@H]2CC[C@@H](C(=O)NC(c3ccccc3)c3ccccc3)N2C1=O [Compound 7] | effectively induce processing of caspase-8 and -3 and cleavage of PARP in a dose-dependent manner |  |
| CN[C@@H](C)C(=O)N[C@H]1CCCC[C@H]2CC[C@@H](C(=O)N[C@@H]3CCCc4ccccc43)N2C1=O [Compound 8] | effectively induce processing of caspase-8 and -3 and cleavage of PARP in a dose-dependent manner | ≤ 10 nM |
